Source: paper PMC4575030 (PLoS ONE, 2015)
Where a name gives a salt, the structure may show the parent alone. Read-outs that look alike come from different tables or passages of the source.

Columns and labels:
[1] = tested on: rat spinal nerve ligation model; assay: Tactile allodynia following spinal nerve ligation (SNL); assay type: in vivo; details: gabapentin positive control, 75 min after dosing; statistically significant
Source text: A decrease in tactile response threshold, using calibrated von Frey filaments (Stoelting Co., Wood Dale, IL), was used as a measure of tactile allodynia following spinal nerve ligation (SNL). Prior to surgery, each animal underwent baseline testing to determine suitability for the assay. Briefly, animals were placed on a raised platform with a grid meshed floor. The distance between the mesh was ¼”. Once acclimated, each animal received a series of trials according to the up-down method described by Dixon. Animals showing a response to less than 4 g were deemed already sensitive to the stimulus and were removed. A maximal fiber of 15 g was employed as a cut-off threshold. Surgery was then performed with a procedure slightly modified by that reported by Kim and Chung. Briefly, the left L5 spinal nerve was carefully isolated from the surrounding tissue. Using 5–0 silk suture, a tight ligature was placed around L5 nerve. Muscle and skin were then closed using 4–0 absorbable suture and wound clips. Animals were allowed to recover and were carefully monitored for seven days to ensure proper healing and ensure there was no mutilation of the affected limb. On day 21 post-surgery, animals were again tested to ensure the development of tactile allodynia. […] Animals were then randomized into groups and dosed with the test compound, gabapentin, or vehicle and assessed as stated above. […]

[2] = tested on: rat CFA model of pain; assay: CFA-induced thermal hyperalgesia; assay type: in vivo; details: morphine s.c., 30 min after dosing, positive control
Procedure: CFA-induced thermal hyperalgesia was measured using the Thermal Plantar Analgesia Instrument (Ugo Basile, Italy). Intensity of the radiant heat stimulus was adjusted to achieve a withdrawal latency of approximately 13 s in naïve animals. On test day one, animals were placed on the apparatus in their individual testing chambers with an absorbent towel at the bottom and allowed to habituate for at least 30 minutes. The towel was then removed and animals were allowed to acclimate for at least 15 minutes more. After habituation, animals were placed back in their home cages until the following day. On test day two, animals were placed back in the testing chambers until calm (typically 20 minutes). The thermal device was positioned on the center of the left hind paw and the test was started. The time for the animal to withdraw its paw from the thermal stimulus was recorded. A cut-off of 30 seconds was used to prevent tissue damage. Few trials went past 20 seconds and none past 25 seconds. This procedure was repeated for three trials per animal, each separated by at least 5 min, and trials were averaged to determine baseline withdrawal latencies. After determining baseline measures, each animal received an injection of 50 μl CFA (1:1 emulsion with PBS, Sigma, St. Louis, MO) into the plantar side of the left hind paw with a 26 gauge needle. Animals were then placed back in their home cages until the following day. Approximately 24 h after the CFA injection, withdrawal latencies to heat were determined as described above. Animals were then randomized based on their Post-CFA baseline score and treated with the test compound or vehicle. […] The experimenter was blinded to drug treatment during this assay. Percent return to baseline latency was used as the endpoint of the assay.

[3] = tested on: rat formalin model of pain; assay: Formalin test (formalin-induced flinching); assay type: in vivo; details: for Reduction in formalin flinching, result in words: rat formalin test; for Decrease in formalin flinching: phase 2 (10 to 40 min), percent of vehicle
Procedure: Formalin-induced flinching was measured using the Automated Nociception Analyzer (ANA) (University Anesthesia Research & Development Group, La Jolla, CA). Rats were habituated to the ANA testing chambers for at least 30 minutes prior to the formalin injection. At test time, each rat was removed from the testing chamber and gently wrapped in a towel. 50 μL of 2.5% formalin solution was injected into the dorsal surface of the left hind paw with a 30 gauge needle. A small metal band was then affixed to the plantar side of the injected paw with one drop of super glue. The animal was then unwrapped from the towel, placed back in the testing chamber, and flinching behavior was scored for 40 minutes by the ANA software. While minimized, non-painful paw movement from the natural activity of an alert animal could be erroneously binned by the automated recording system as a nociceptive behavior. These behaviors are not subtracted from the flinching total. […] Total flinching behavior was used as the endpoint of the assay.

[4] = biological target: T1, hNav1.7 (Homo sapiens, UniProt Q15858); assay: Manual whole cell patch clamp electrophysiology on HEK 293 cells stably expressing hNav1.7; assay type: cell-based
T1 construct: expressed in transfected cells; host or cells: HEK 293
Procedure: Except as indicated, recordings to determine potency of aminotriazines on Nav1.7 were made with manual electrophysiology. HEK 293 cells stably expressing hNav1.7 were voltage-clamped using the whole cell patch clamp configuration. Cells were plated onto 35 mm culture dishes 0–24 hours before recording, and tissue culture medium was exchanged for external solution containing (in mM) 140 NaCl, 5 KCl, 2 CaCl2, 1 MgCl2, 10 HEPES, 11 glucose, pH 7.4 with NaOH. Patch pipettes were pulled from borosilicate glass capillaries (1.2 mm outer diameter, World Precision Instruments, Sarasota, FL) with a P-97 pipette puller (Sutter Instruments, Novato, CA) and backfilled with internal solution containing (in mM) 62.5 CsCl, 75 CsF, 2.5 MgCl2, 5 EGTA, 10 HEPES, pH 7.25 with CsOH. Pipette resistances were between 1.5 and 2.0 MΩ. After formation of the whole-cell configuration, cells were lifted off the dish bottom with the patch pipette and positioned directly in front of a microarray of glass tubes (each tube internal diameter ~ 1 mm) with each tube containing continuously flowing control or test solution. A full current-voltage relation was recorded from each cell, and cells with poor space clamp as indicated by discontinuous I-V relation or by prolonged or nonexponential current kinetics were discarded. Solution switching was accomplished by moving the microarray with computer control via an RSC-160 rapid solution exchanger (Bio-Logic, Claix, France). Currents were recorded with an Axopatch 200B patch-clamp amplifier driven by pCLAMP software, filtered (4-pole Bessel) at 5 kHz during acquisition, and digitized at 20 kHz using pClamp9.2. Whole cell capacitance and series resistance were compensated at 0%- 80%, and reported voltages were uncorrected for liquid junction potentials. Recordings were made at room temperature. Concentration-response curves were taken by measuring inward Nav1.7 current every five to six seconds with a 10 ms to 20 ms depolarization to near the peak of the current-voltage relation, before and after steady-state inhibition by a given concentration of aminotriazine. For concentration response curves on partially inactivated channels, holding voltage was set to produce 20% fractional inactivation. […] Occasionally two compound concentrations were tested in parallel without resetting the voltage, if inhibition was rapid and the current level steady. […] Concentration response curves on non-inactivated channels generally were taken with multiple concentrations added in series without washoff of the previous concentration.

[5] = Terminal plasma and brain concentrations after behavioral testing; assay type: in vivo, rat
[6] = biological target: rat Nav1.7 (Rattus norvegicus, UniProt O08562); assay: PatchXpress automated electrophysiology on rat Nav1.7; assay type: cell-based; details: 20%-inactivated rat Nav1.7
[7] = tested on: naïve rats; assay: Open field activity (basic movement); assay type: in vivo, rat; details: formalin-naïve rats
Procedure: Basic movement was measured using the Photobeam Activity System Open Field (San Diego Instruments, San Diego, CA) equipped with 48 infrared photocell emitters and detectors. Photobeams used to measure vertical movement were positioned 14 cm above the test chamber floor. Each testing chamber was made of Plexiglas (41 x 41 x 36 cm) and was devoid of any bedding. At the beginning of the test session, each animal was placed in a separate testing chamber and the room lights were turned off. Basic movement was measured for 30 minutes.

[8] = In vitro plasma protein binding; assay type: in vitro ADME

T1 sequence (Q15858 whole entry): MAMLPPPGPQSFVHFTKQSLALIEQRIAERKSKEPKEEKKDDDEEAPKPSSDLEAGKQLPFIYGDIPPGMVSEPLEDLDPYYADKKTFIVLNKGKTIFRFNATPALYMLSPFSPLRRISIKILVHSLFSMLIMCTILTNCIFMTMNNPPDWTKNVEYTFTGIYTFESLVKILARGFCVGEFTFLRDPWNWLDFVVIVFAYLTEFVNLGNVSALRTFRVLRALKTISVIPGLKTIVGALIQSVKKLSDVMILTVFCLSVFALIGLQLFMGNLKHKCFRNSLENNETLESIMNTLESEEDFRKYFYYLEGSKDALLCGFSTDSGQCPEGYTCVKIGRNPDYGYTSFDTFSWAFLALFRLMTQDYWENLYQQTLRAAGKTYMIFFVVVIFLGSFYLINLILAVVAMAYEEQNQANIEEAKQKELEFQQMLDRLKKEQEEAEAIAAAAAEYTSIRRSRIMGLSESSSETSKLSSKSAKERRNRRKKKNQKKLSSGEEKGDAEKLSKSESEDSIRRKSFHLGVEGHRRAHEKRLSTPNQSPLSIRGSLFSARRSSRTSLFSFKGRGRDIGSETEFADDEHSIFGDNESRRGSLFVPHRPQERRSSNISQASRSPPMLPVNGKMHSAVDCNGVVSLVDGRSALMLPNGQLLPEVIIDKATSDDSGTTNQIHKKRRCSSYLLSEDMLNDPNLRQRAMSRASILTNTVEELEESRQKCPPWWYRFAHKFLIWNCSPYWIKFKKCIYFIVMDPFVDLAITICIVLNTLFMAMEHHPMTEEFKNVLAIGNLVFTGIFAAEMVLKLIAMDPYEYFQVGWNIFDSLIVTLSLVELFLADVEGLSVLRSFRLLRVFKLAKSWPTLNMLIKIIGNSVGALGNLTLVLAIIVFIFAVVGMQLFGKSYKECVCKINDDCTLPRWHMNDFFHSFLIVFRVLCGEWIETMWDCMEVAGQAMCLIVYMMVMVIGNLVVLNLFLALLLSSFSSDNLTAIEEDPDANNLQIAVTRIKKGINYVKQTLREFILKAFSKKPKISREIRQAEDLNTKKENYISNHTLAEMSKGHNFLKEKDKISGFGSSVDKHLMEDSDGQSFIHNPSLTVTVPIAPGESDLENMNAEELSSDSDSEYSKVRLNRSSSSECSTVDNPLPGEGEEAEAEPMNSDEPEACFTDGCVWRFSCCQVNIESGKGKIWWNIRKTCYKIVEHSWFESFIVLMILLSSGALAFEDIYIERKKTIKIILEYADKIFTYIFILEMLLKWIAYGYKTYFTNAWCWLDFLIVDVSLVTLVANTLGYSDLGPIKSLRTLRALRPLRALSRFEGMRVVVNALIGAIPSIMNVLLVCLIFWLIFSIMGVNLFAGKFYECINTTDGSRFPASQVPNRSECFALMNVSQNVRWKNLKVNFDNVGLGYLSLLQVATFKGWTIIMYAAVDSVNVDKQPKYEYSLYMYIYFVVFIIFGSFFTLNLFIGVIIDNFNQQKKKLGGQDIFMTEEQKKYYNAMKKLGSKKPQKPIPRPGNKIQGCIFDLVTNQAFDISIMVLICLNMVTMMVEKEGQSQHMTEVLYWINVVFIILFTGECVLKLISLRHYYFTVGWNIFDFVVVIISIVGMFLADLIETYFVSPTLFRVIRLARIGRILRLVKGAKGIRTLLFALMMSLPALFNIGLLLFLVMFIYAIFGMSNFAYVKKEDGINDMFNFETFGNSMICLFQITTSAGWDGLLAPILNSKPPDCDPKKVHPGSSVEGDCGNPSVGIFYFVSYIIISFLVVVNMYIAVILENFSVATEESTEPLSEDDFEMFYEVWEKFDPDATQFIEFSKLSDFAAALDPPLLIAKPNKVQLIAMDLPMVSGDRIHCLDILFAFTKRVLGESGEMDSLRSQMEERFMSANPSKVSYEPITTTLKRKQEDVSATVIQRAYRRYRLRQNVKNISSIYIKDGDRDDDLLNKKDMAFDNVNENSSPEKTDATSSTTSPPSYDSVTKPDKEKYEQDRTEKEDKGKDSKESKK
Chain of rat Nav1.7 (O08562 whole entry): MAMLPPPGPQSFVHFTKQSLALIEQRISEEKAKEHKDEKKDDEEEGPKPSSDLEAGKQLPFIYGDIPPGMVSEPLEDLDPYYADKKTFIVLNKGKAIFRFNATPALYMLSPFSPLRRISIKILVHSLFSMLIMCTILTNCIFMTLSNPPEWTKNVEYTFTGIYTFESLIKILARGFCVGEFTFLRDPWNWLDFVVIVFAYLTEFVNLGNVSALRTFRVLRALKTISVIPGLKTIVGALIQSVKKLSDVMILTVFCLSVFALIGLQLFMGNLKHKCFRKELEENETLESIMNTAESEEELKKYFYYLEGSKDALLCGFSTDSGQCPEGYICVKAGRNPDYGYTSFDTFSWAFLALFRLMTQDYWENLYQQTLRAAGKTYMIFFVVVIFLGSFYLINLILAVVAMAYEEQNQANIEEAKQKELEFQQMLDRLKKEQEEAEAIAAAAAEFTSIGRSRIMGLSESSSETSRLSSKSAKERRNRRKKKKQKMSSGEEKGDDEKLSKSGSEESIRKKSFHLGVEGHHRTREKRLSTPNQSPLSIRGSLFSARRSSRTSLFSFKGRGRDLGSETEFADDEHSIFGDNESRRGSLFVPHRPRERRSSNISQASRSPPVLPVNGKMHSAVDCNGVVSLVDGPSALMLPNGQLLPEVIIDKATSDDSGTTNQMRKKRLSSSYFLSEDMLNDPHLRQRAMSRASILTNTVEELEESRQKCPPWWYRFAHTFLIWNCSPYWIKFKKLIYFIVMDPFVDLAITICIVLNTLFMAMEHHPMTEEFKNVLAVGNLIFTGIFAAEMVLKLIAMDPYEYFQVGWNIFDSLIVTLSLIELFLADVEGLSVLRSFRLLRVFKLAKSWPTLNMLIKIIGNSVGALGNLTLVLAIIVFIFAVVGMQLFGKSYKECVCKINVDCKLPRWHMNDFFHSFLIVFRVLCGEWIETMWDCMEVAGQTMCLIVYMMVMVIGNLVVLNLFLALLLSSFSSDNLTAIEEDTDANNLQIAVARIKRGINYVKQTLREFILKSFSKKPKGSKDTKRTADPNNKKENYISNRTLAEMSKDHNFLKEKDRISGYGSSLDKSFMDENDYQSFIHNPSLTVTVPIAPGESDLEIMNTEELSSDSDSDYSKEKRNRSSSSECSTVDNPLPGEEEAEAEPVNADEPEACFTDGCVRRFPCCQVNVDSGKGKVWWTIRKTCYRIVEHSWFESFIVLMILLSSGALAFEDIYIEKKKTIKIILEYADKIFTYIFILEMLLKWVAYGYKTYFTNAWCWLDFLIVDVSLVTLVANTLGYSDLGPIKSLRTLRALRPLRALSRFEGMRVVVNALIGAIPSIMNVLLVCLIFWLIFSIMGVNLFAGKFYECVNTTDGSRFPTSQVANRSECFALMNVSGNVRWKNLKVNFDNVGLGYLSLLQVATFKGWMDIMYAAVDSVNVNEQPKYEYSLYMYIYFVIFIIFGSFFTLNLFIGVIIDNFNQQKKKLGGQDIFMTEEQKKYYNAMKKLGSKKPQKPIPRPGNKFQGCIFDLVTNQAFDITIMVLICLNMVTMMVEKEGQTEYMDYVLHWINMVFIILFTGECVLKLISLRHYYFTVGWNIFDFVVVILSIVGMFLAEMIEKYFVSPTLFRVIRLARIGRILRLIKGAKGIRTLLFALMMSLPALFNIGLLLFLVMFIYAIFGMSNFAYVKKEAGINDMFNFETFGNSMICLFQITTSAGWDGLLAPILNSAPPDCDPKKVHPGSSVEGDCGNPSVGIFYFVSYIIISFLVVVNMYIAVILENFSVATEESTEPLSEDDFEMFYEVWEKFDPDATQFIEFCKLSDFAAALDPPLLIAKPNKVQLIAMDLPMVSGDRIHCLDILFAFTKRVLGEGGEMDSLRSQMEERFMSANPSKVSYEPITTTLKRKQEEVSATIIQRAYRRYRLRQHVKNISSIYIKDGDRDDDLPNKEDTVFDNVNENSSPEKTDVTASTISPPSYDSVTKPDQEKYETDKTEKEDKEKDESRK

Question: With `NCC1(CC(=O)O)CCCCC1` [gabapentin, reference compound] as the compound, how does the “Reversal of tactile allodynia compared to the vehicle group” value [1] read?
Answer: Its value is 44%.

Question: For `CN1CC[C@]23c4c5ccc(O)c4O[C@H]2[C@@H](O)C=C[C@H]3[C@H]1C5` [morphine, Morphine sulfate, reference compound], which “Average reversal of thermal hyperalgesia compared to baseline” value [2] is on record?
Answer: The value was 87%.

Question: And the “Total reduction in phase 2 flinching as percent of vehicle” value ([3]; morphine 2 mg/kg s.c., positive control)?
Answer: The value was 68%.

Question: What about the “Reduction in formalin flinching, result in words” value [3] of the same compound?
Answer: Its value is “statistically significant decrease in flinching compared to the vehicle group”.

Question: What does the source list for `CC(=O)Nc1cc(Nc2ncnc(N3CC=C(c4ccc(C#N)cc4)CC3)n2)ccc1F` [Compound E, N-(5-((4-(4-(4-cyanophenyl)-3,6-dihydro-1(2H)-pyridinyl)-1,3,5-triazin-2-yl)amino)-2-fluorophenyl)acetamide]?
Answer: IC50 ([4]; IC50 (μM) 20%-inactivated, 20%-inactivated human Nav1.7, holding voltage set to produce 20% fractional inactivation): 0.09 µM; IC50 ([4]; non-inactivated human Nav1.7, holding voltage -140 mV or occasionally -120 mV, peak concentration tested 10 μM, read-out: IC50 (μM) Non-inactivated): 2.1 µM; Kp ([5]; brain and plasma, rat, ratio of concentrations measured following the formalin test): 0.49; Effective [plasma] ([5]; mean terminal plasma concentration at the lowest effective dose in the rat formalin test): 6.14 µM; IC50 [6]: 3.5 µM; Decrease in basic movement ([7]; 10 mg/kg p.o., negative value = increase): 2%; Decrease in basic movement ([7]; 30 mg/kg p.o.): 29%; Decrease in basic movement ([7]; 100 mg/kg p.o.): 29%; Decrease in formalin flinching ([3]; 10 mg/kg p.o.): 18%; Decrease in formalin flinching ([3]; 30 mg/kg p.o.): 62%; Decrease in formalin flinching ([3]; 100 mg/kg p.o.): 83%; Analgesic efficacy ([3]; rat formalin model, significant (p < 0.05) decrease in flinching at a dose without a reduction in open field movement that obviated the result): Yes; Reduction in formalin flinching, result in words [3]: statistically significant and plasma concentration-dependent reduction in formalin flinching; fraction unbound [8]: 0.009
